# Experiments:
# IL-8 = IL-8 in PBMC culture media (Mesoscale V-Plex Human IL-8); type: cell-based; conditions: 0.5 μM
# Method: The effect of Compound 1 treatment on levels of IL-8 was determined in PBMC culture media. PBMCs were isolated from whole blood and cultured in RPMI media plus 10% FBS. PBMCs were plated at 1×10^6 per milliliter in 10 cm^2 dishes. The PBMCs were treated with 0.1% DMSO or 0.5 μM Compound 1. Treatments were taken down at the designated time points. The culture media (1 mL) was used for IL-8 analysis. The IL-8 analysis was performed with a Mesoscale V-Plex Human IL-8 kit according to the manufacturer's instructions.
# MiaPaCa-2 = assay: Proliferation, CellTiter-Glo, 72 h; type: cell-based; conditions: MiaPaCa-2, Pancreas
# HT29 = assay: Proliferation, CellTiter-Glo, 72 h; type: cell-based
# Hep3B2.1-7 tumor = assay: Orthotopic Hep3B2.1-7 hepatocellular carcinoma xenograft; type: in vivo, SCID mice
# Method: Female SCID mice were orthotopically inoculated with 2×10^6 Hep3B2.1-7 tumor cells per animal. Seven days post-inoculation the animals were randomized into treatment groups based on body weight and the treatment commenced (Study day 0). Take rate assessment of a satellite group confirmed the presence of tumor in the liver in 100% of the animals. Treatment with Compound 1 was started and Compound 1 was dosed orally, QD for 21 days. […] On the day of study termination, the tumors were removed and weighed. Individual tumor weights and the mean tumor weight±SEM of each group was plotted (FIG. 16). Percent inhibition was calculated relative to the vehicle control. P values were derived from a one-way ANOVA with a Dunnet's post-hoc analysis. ***=p<0.001.
# Hep3B (HCC) cells = assay: Long term colony assay; type: cell-based; conditions: up to 8 weeks
# Method: (§1) Compound 1 was assessed for its ability to inhibit the colony formation of cancer cells via a long-term colony forming assay. Cells and compounds were added to 96-well plates and were monitored for up to 8 weeks for the formation of colonies. Compound and media were replenished every 1 week throughout the course of the assay. Colony formation was detected via imaging at 4× on the IncuCyte ZOOM System. […] (FIG. 23A-23D).
# HCT-116 (colo) cells = assay: Long term colony assay; type: cell-based; conditions: up to 8 weeks
# Method: as §1
# AGS (gastric) cells = assay: Long term colony assay; type: cell-based
# Method: as §1
# SW48 (colo) cells = assay: Long term colony assay; type: cell-based; conditions: up to 8 weeks
# Method: as §1
# [1] = tested on: MAPK signaling (pRSK1, DUSP4, DUSP6, SPRY2, cyclin D1, c-Myc, YAP); assay: MAPK signaling markers (MSD, Western blot, qPCR) in Colo 205 (BRAF V600E); type: cell-based
# Method: In a time course experiment, Colo-205 cancer cells were treated with 0.5 μM Compound 1 for various time periods. The effect of Compound 1 on pRSK S380 was measured as described. The effect of Compound 1 on other MAPK pathway markers (DUSP4 and DUSP6) was measured via Western blotting with specific antibodies.
# The ability of Compound 1 to inhibit MAPK signaling was assessed by determining the DUSP4 and DUSP6 protein expression. Colon cancer cell line Colo 205 (BRAF V600E) cultures were treated with DMSO or increasing concentrations of Compound 1 for 2, 8 or 24 h. Proteins were extracted from treated cells and analyzed by Western blot using antibodies against DUSP4, DUSP6, cyclin D1, c-Myc, YAP or β-actin. RNAs were extracted using Cell-To-CT kit and quantitative PCR was performed with probes specific for DUSP4, DUSP6, SPRY2, c-Myc and cyclin D1. Specific probes for β-actin were used for normalization.
# Compound 1 modulation of MAPK, WNT/β-catenin, and Hippo/YAP pathway markers was evaluated by standard Western blotting. LOX-IMVI, SW48, and Colo-205 cells were plated in 6-well plates at a density of 250,000 cells per well and were allowed to attach overnight. Compound 1 was added to cells at concentrations of 0.03, 0.1, 0.3, 1, and 3 μM for durations of 2, 8, and 24 hours. […] The cell lysates were heated in sodium dodecyl sulfate (SDS)-sample buffer and 40 μg of cell lysate per condition were loaded onto gels and separated using SDS polyacrylamide gel electrophoresis (PAGE). Protein was transferred to nitrocellulose membrane, and immunoblotted with anti DUSP4, DUSP6, cMyc, Cyclin D1, YAP, AXIN2, HDACS (phospho S498), and β-actin antibodies. Membranes were scanned on the Licor Odyssey system.
# Compound 1 modulation of MAPK, WNT/β-catenin, and Hippo/YAP pathway genes was evaluated by real-time (RT)-qPCR. […], SW48, and Colo-205 cells were plated in 96-well plates at a density of 20,000 cells per well and were allowed to attach overnight. Compound 1 was added to cells at half log concentrations from 1 nM to 10 μM for durations of 2, 8, and 24 hours. Cells were harvested using the TaqMan Gene Expression Cells-to-CT Kit according to the product manual. Next, RT-PCR was performed and the resulting cDNA was used in qPCR reactions on the ViiA7 Real-Time PCR System (Thermo Fisher Scientific). TaqMan probes were used to monitor changes in DUSP4, DUSP6, SPRY2, MYC, CCND1, AXIN2, CTGF, Cyr61, AREG, and ACTB genes. All genes were normalized to ACTB expression and reported as percentage of DMSO-only control.
# PDX146 tumor = assay: PDX1994060146 (PDX146) subcutaneous colorectal patient-derived xenograft model; type: in vivo, NSG mice; conditions: for Tumor growth delay (TGD): TTP study
# Method: A time to progression (TTP) study was performed to determine the effect of longer treatment duration on tumor growth.
# In the first experiment Compound 1 was administered orally, QD at 1, 5, and 15 mg/kg or 5 and 15 mg/kg BID for 22 days.
# In the TTP study, Compound 1 was administered orally, 1, 5, and 15 mg/kg BID for 49-77 days. Compound 1 treatment groups were dosed throughout the duration of the study until the group mean reached the predetermined endpoint of approximately 1200 mm^3 or study termination. Tumor growth delay (TGD) was calculated as the time between the termination of the vehicle control group (on day 43) and the Compound 1 treatment groups. The TGD was 8, 12 and >37 days for the 1, 5 and 15 mg/kg treatment groups, respectively. (FIG. 11)
smiles,measurement,setting,value
"C[C@]1(C(N)=O)CC[C@@H](n2c(Nc3c(Cl)cc(Cl)cc3Cl)nc3cnc(N[C@@H]4CCOC[C@H]4F)nc32)CC1 [Compound 1, cis-4-[2-{[(3S,4R)-3-fluorooxan-4-yl]amino}-8-(2,4,6-trichloroanilino)-9H-purin-9-yl]-1-methyl cyclohexane-1-carboxamide]",IL-8 levels in PBMC culture media,IL-8,inhibit IL-8 levels at different time-points
same,GI50,MiaPaCa-2,47.1 nM
same,Mode of growth effect (cytotoxic / cytostatic),HT29,cytostatic
same,Body weight,Hep3B2.1-7 tumor; 15 mg/kg orally QD 21 days,minimal body weight loss
same,Body weight,Hep3B2.1-7 tumor; 30 mg/kg orally QD 21 days,significant mean body weight gain
same,Tumor weight compared to vehicle controls,"Hep3B2.1-7 tumor; orally, QD for 21 days",statistically significant reduction in tumor weight
same,Inhibition of colony formation vs MEK inhibitors (trametinib) and ERK inhibitors (GDC0994),Hep3B (HCC) cells,greater levels of inhibition than seen with treatment with MEK inhibitors or ERK inhibitors
same,Inhibition of colony formation vs MEK inhibitors (trametinib) and ERK inhibitors (GDC0994),HCT-116 (colo) cells,greater levels of inhibition than seen with treatment with MEK inhibitors or ERK inhibitors
same,Colony formation of AGS cells resistant to trametinib,AGS (gastric) cells; AGS cells resistant to MEK inhibitor trametinib,inhibit colony formation
same,Inhibition of colony formation vs MEK inhibitors (trametinib) and ERK inhibitors (GDC0994),"AGS (gastric) cells; AGS, up to 8 weeks",greater levels of inhibition than seen with treatment with MEK inhibitors or ERK inhibitors
same,Inhibition of colony formation vs MEK inhibitors (trametinib) and ERK inhibitors (GDC0994),SW48 (colo) cells,greater levels of inhibition than seen with treatment with MEK inhibitors or ERK inhibitors
same,cyclin D1 and c-Myc RNA and protein levels,[1]; Colo 205,significantly decreased
same,DUSP4 and DUSP6 protein (Western blot),"[1]; Colo 205 (BRAF V600E), as early as 2 h, sustained through 24 h",significantly reduced
same,YAP protein,"[1]; Colo 205, 24 h",decreased YAP protein
same,SPRY2 transcription,"[1]; Colo 205, qPCR",reduction of SPRY2 transcription in a concentration-dependent manner
same,"Inhibition of ERK targets pRSK1, DUSP4 and DUSP6, time course","[1]; Colo-205, 0.5 μM",sustained inhibition (up to 72 hr)
same,Tumor growth delay (TGD),PDX146 tumor; 1 mg/kg BID orally,8 days
same,Tumor growth delay (TGD),PDX146 tumor; 5 mg/kg BID orally,12 days
same,Tumor growth delay (TGD),PDX146 tumor; 15 mg/kg BID orally,> 37 days
same,"Antitumor activity, 15 mg/kg BID compared to 15 mg/kg QD",PDX146 tumor; 22 days,appeared to increase the antitumor activity
same,Antitumor activity,"PDX146 tumor; orally, QD at 1, 5, and 15 mg/kg or 5 and 15 mg/kg BID for 22 days",Dose-dependent antitumor activity
